Article PMC12523843, “Kuwanon A Targeted YWHAB in Hepatocellular Carcinoma Cells to Inhibit the Raf/MEK/ERK Signaling Pathway” (Cells, 2025)
Read-outs that look alike come from different tables or passages of the source.

Experiments:
[1] = target: T1, Raf1 and YWHAB interaction (Homo sapiens, UniProt P31946); test: Co-immunoprecipitation of MYC-YWHAB and FLAG-Raf 1 in HEK 293T; format: cell-based; conditions: 25 μM and 30 μM, HEK 293T overexpressing MYC-YWHAB and FLAG-Raf 1
T1 construct: host or cells: HEK 293T
T1 sequence (P31946 1-246): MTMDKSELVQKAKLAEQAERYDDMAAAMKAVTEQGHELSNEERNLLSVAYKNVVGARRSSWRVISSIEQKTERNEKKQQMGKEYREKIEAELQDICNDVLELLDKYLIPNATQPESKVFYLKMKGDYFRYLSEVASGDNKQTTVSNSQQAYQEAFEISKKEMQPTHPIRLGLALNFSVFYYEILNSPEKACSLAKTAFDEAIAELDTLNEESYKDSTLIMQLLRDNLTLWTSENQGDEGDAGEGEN

[2] = system: HCC cells (MHCC97 H and SMMC 7721); test: EdU staining proliferation assay; format: cell-based, human
Procedure: EdU staining was employed to assess cell proliferation following the manufacturer’s guidelines (Beyotime, Shanghai, China). A total of 2 × 10^4 cells, together with KA or DMSO, were seeded into 24-well plates and cultured for 48 h. Subsequently, the cells were incubated with […] EDU for 2 h, followed by fixation with 4% PFA for 15 min, permeabilization with 0.3% Triton X-100 for 10 min, and reaction with Click reaction cocktails for 30 min. Finally, the nuclei were stained with DAPI for 30 min at room temperature before microscopic examination.

[3] = Renal and liver function tests in treated mice; format: in vivo, BALB/c-nu mice; conditions: KA-treated mice compared to DMSO controls
[4] = system: MHCC97 H cells injected into the liver; test: Orthotopic hepatocellular carcinoma xenograft survival; format: in vivo, BALB/c-nu mice; conditions: 30 mg/kg intraperitoneal, every two days, 45 days
From the text: Thirty-six female BALB/c-nu mice, four weeks old (supplied by Slike Jingda Laboratory Animal Co., Ltd., Changsha, China; Animal qualification number: SCXK-2019-0004), were housed in an SPF room. […] Therefore, female mice were selected for this study; 12 mice were used to establish the hepatocellular carcinoma xenografts. MHCC97 H cells (1 × 10^5 cells) were slowly injected into the left lobe of the mouse liver after being anesthetized with isoflurane. Three days later, the mice received intraperitoneal injections of KA (30 mg/kg) every two days for 45 days. Control mice were administered DMSO injections. Recorded the survival status of the animals. Prior to liver collection, the mice were anesthetized with isoflurane to minimize pain and euthanized by cervical dislocation. Ethics approval serial number: IACUC-20240613-03. Animal experiments were conducted in accordance with the Guide for the Care and Use of Laboratory Animals (Ministry of Science and Technology of China, 2006).

[5] = system: phosphorylation of MEK1/2 and ERK1/2; test: Western blot of MAPK pathway; format: cell-based, human
Procedure: Cells were harvested using a cell scrape and washed three times with PBS buffer, then lysed on ice in RIPA lysis buffer (Beyotime, Shanghai, China). Protein concentration was determined using a BCA protein assay kit (Beyotime, Shanghai, China). Subsequently, 60 µg of protein was mixed with 5× loading buffer and heated in a 100 °C water bath for 15 min. The samples were subjected to SDS-PAGE electrophoresis, followed by transfer onto a PVDF membrane (Millipore, Darmstadt, Germany). The membrane was blocked with 5% BSA for 2 h at room temperature and incubated sequentially with primary and HRP-conjugated secondary antibodies. Finally, signal detection was performed using an ECL detection system (Clinx, Shanghai, China).

[6] = system: nuclear translocation of ERK; test: ERK nuclear translocation (nuclear/cytoplasmic extraction, immunofluorescence); format: cell-based, human; conditions: 10 μM, 48 h, confocal microscopy
Procedure: After treating HCC cells with KA or DMSO, the cells were collected by cell scraping. Adding an appropriate amount of PMSF and reagent A (Nuclear and Cytoplasmic Protein Extraction Kit, Beyotime, Shanghai, China). Vortexed and then ice bathed for 15 min. Adding the reagent B provided in the kit mentioned before. Then vortexed and ice bathed for 1 min. Vortexed again. Centrifuged at 14,000× g for 5 min. The supernatant was cytoplasmic protein. Adding a certain amount of nuclear protein extraction reagent to the precipitate. Multiple vortices within 30 min. Centrifuged at 14,000× g for 10 min. The obtained supernatant was the nuclear protein.

MHCC97 H cells = test: MTT IC50 determination in MHCC97 H; format: cell-based, human; conditions: Homo sapiens, MHCC97H
Procedure: Cell viability was assessed using MTT experiments. Cells, together with KA, were seeded into 96-well plates at a density of 2000 cells per well with three replicates per condition. DMSO was used as a control. At designated time points, 20 μL of MTT (Sigma, St. Louis, MO, USA) solution was added to each well and incubated for 3 h. After removing the culture medium, 200 μL of DMSO was added to dissolve the formazan crystals. The absorbance was then measured using a microplate reader at a wavelength of 560 nm.

YWHAB = target: T2, YWHAB (Homo sapiens, UniProt P31946); test: Epoxy-activated Sepharose 6B pull-down; format: binding; set-up: host or cells: HEK 293T; conditions: KA immobilized on Sepharose 6B, HEK 293T overexpressing YWHAB
T2 sequence (P31946 1-246): T1 sequence (P31946 1-246)
Procedure: Epoxy-activated Sepharose 6B (Cytia, Washington, DC, USA) affinity media was used to bind KA molecules following the media’s absorbency swelling. The Sepharose 6B media was co-incubated with KA or DMSO and gently agitated overnight at room temperature. The product was then thoroughly washed through at least three cycles. Any remaining active groups were blocked using 1 M ethanolamine, incubated for 4 h at 37 °C. The 6B media, now bound with KA or DMSO, were further incubated with the cell lysate sample overnight, with gentle agitation at 4 °C. The media was washed again through a minimum of three cycles. A suitable amount of loading buffer was added, and the samples were heated in a 100 °C water bath for 15 min. The resulting supernatant was then ready for use in SDS-PAGE electrophoresis.

YWHAB dimer = target: T3, YWHAB dimer (Homo sapiens, UniProt P31946); test: Blue-Native PAGE of YWHAB dimer; format: cell-based; set-up: endogenous in cells; host or cells: MHCC97 H and SMMC 7721; conditions: HCC cell lines and FLAG-YWHAB overexpressed HEK 293T cells
T3 sequence (P31946 1-246): T1 sequence (P31946 1-246)
Procedure: Blue/Clear Native PAGE (Real Times, Beijing, China) is an electrophoretic technique used to separate protein complexes from biological samples. Instead of SDS, Coomassie Brilliant Blue G-250 binds to the protein, imparting a negative charge, allowing separation in the PAGE gel based on the molecular weight of the proteins. HCC cells treated with KA or DMSO for 48 h were collected using a cell scraper and lysed on ice in IP cell lysis buffer for one hour. A suitable amount of 4× BN/CN-PAGE protein loading buffer and 5% G-250 stain (for loading) was added to the supernatant of the protein sample, followed by BN-PAGE electrophoresis in the Native PAGE gel. After electrophoresis and membrane transfer, the PVDF membrane (Millipore, Darmstadt, Germany) was blocked with 5% BSA for two hours at room temperature. HPR-linked primary and secondary antibodies were incubated for detection, and protein bands were visualized using the ECL detection system (Clinx, Shanghai, China)

[7] = YWHAB-overexpressing HCC cells, KA 15 μM, 48 h

CC(C)=CCc1c(-c2ccc(O)c3c2OC(C)(C)C=C3)oc2cc(O)cc(O)c2c1=O [KA, Kuwanon A]
amount of YWHAB interacting with Raf1 (co-immunoprecipitation) [1]: reduction in the amount of YWHAB interacting with Raf1 | proportion of proliferating HCC cells (EdU) ([2]; 48 h treatment): significant decrease in the proportion of proliferating HCC cells | proliferation inhibition by KA under YWHAB overexpression (EdU) [2, 7]: partly reversed the proliferation inhibition | renal and liver function tests (ALB, total protein, GOT/AST, GPT/ALT) [3]: no significant changes | survival time [4]: significantly extended | KA's effects on MEK1/2 and ERK1/2 phosphorylation under YWHAB overexpression [5, 7]: partly abrogated | phosphorylation levels of MEK1/2 and ERK1/2 (Western blot) ([5]; indicated concentrations 48 h, 15 μM for 24 or 48 h): significant downregulation of the phosphorylation levels of MEK1/2 and ERK1/2 | nuclear translocation of ERK [6]: inhibited the nuclear translocation of ERK | IC50 (MHCC97 H cells; MTT method, read-out: IC50 in MHCC97 H (screen)): < 20 µM | IC50 (MHCC97 H cells; MTT, gradient concentrations, 48 h, read-out: IC50 in MHCC97 H): 8.4 µM | interaction with YWHAB (pull-down) (YWHAB): direct interaction | proportion of YWHAB dimer (Native-PAGE) (YWHAB dimer): proportion of YWHAB dimer had decreased
